Reference: article PMC6515293 (Molecules, 2019)
Entries after “also recorded” stand apart in the source; their conditions may differ.

Experiments:
[1] = system: budding yeast; set-up: method as in PMID 29783050; details: cited from earlier work
[2] = system: human ERα; set-up: method as in PMID 15840436; details: 10.0 μM of MEHP in the presence of 10.0 pM E2; cited from earlier work
[3] = system: estrogen responsive elements (ERE-luc or AP-1-luc); set-up: method as in PMID 20209442; details: 10 μM of MEHP; cited from earlier work
[4] = system: male rats; set-up: method as in PMID 17654256; details: cited from earlier work
[5] = system: MCF-7 cells; set-up: method as in PMID 12913283; details: cited from earlier work
[6] = system: estrogen receptor; set-up: method as in PMID 26272952; details: computational network model; cited from earlier work
[7] = system: fetal testis; details: cited from earlier work
[8] = system: YES and YAS Saccharomyces cerevisiae yeasts; assay: Yeast cytotoxicity (growth factor, absorbance at 690 nm)

SMILES: CCCCC(CC)COC(=O)c1ccccc1C(=O)O (stereo not drawn) [MEHP, mono-(2-ethylhexyl) phthalate]
- concentration at which cytotoxicity was induced [1]: 1600 µM
- anti-estrogenic activity [2]: no anti-estrogenic activity
- estrogenic activity [3]: estrogenic effect
- weights of ventral prostate, seminal vesicles and levator ani/bulbocavernosus (LABC) [4]: decreased weights
- anti-estrogenic activity [5]: decrease of natural estrogenic activity
- anti-estrogenic activity [6]: no anti-estrogenic activity
- testosterone production [7]: did not affect
- cytotoxicity (yeast cell viability) ([8]; 100 nM to 1.00 mM): did not induce yeast toxicity; also recorded: no effect
- cytotoxicity (yeast cell viability) ([8]; 10.0 mM, growth factor below 0.5): significant cytotoxicity
